Experiments:
SARS-CoV-2 [1] = test: Reduction of SARS-CoV-2 viral load in Vero E6 cells (image based assay of Jin et al.); format: cell-based; details: Severe acute respiratory syndrome coronavirus 2, Vero C1008, read-out: EC50, reduction in viral load in Vero E6 cells, SARS-CoV-2; ebselen 100 nM to 1000 μM in DMSO or EtOH, remdesivir 1 nM to 10 μM
Vero E6 cells = test: Cytotoxicity / cell viability in Vero E6 cells; format: cell-based; details: ebselen: at ranges slightly higher than EC50
SARS-CoV-2 [2] = test: Hamster model of SARS-CoV-2 disease transmission and progression, viral load (PFU); format: in vivo, Golden Syrian Hamsters; details: 15 mg/kg
Experimental: 24 hours prior to nasal inoculation with SARS-CoV-2, Golden Syrian Hamsters were dosed with ebselen, saline and remdesivir at 15 mg/kg. Samples were taken from nares (PFU/swab) on days 1, 2 and 3, and from the nasal turbinates and cranial & caudal lung tissue (PFU/100 mg) on day 7.

[3] = human, in vivo, iv

## CCC(CC)COC(=O)[C@H](C)N[P@](=O)(OC[C@H]1O[C@@](C#N)(c2ccc3c(N)ncnn23)[C@H](O)[C@@H]1O)Oc1ccccc1 [remdesivir]
SARS-CoV-2 [1]
  EC50: 7 µM
Vero E6 cells
  effect on cell viability: no effect on cell viability
SARS-CoV-2 [2]; 24 hours prior to nasal inoculation, saline 2.7E+04
  PFU/swab (nares) Day 1: 1.1E+04 PFU/swab
SARS-CoV-2 [2]; 24 hours prior to nasal inoculation, saline 5.5E+02
  PFU/swab (nares) Day 3: 3.8E+03 PFU/swab
SARS-CoV-2 [2]; 24 hours prior to nasal inoculation, saline 7.5E+03
  PFU/swab (nares) Day 2: 3.1E+03 PFU/swab
SARS-CoV-2 [2]; day 7, saline 4.9E+06
  PFU/100 mg Cranial lung: 4.4E+06 PFU/100 mg
SARS-CoV-2 [2]; day 7, saline 5.5E+07
  PFU/100 mg Turbinates: 4.0E+02 PFU/100 mg
SARS-CoV-2 [2]; day 7, saline 6.1E+06
  PFU/100 mg Caudal lung: 1.2E+07 PFU/100 mg

## NC[C@H]1O[C@H](O[C@H]2[C@H](O)[C@@H](O[C@H]3O[C@H](CO)[C@@H](O)[C@H](N)[C@H]3O)[C@H](N)C[C@@H]2N)[C@H](N)C[C@@H]1O [tobramycin]
[3]; 4 weeks
  % Responders (Bilateral), Conv + SRO: 33%
  % Responders (Bilateral), Conventional: 0%
  % Responders (Bilateral), DPOAE: 40%
  % Responders (Bilateral), SRO: 33%
  % Responders (Bilateral), WINT: 7%
  % Responders (Unilateral), Conv + SRO: 60%
  % Responders (Unilateral), Conventional: 27%
  % Responders (Unilateral), DPOAE: 40%
  % Responders (Unilateral), SRO: 53%
  % Responders (Unilateral), WINT: 33%
  % Responders, Conv + SRO: 93%
  % Responders, DPOAE: 80%
  % Responders, SRO: 87%
  % Responders, TFI: 8%
  % Responders, TL: 15%
  % Responders, VSS: 8%
  % Responders, WINT: 40%
[3]; 4 weeks post-treatment
  % Responders, Conventional: 27%
